In paper PMC2873071 (Nature chemical biology, 2010):

Target: T1, glucocerebrosidase (GC; Cerezyme, recombinant WT GC) (Homo sapiens, UniProt P04062)
T1 sequence (P04062 40-536): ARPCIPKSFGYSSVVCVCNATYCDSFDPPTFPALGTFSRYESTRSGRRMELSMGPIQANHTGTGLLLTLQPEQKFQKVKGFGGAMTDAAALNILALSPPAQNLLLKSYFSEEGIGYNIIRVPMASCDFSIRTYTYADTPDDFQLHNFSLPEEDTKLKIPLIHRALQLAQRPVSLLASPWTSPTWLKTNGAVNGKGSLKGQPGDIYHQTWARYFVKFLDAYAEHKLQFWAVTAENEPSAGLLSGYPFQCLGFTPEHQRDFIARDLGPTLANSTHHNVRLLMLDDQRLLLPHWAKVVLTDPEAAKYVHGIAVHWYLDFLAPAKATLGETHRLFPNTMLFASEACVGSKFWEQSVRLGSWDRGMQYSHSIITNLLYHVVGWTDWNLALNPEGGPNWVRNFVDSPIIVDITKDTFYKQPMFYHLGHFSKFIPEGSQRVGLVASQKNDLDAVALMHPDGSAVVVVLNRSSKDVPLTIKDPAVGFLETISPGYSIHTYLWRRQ
Test: in vitro enzyme inhibition assay with recombinant GC
Assay type: biochemical

IC50: ~90 µM
SMILES: O=C1CN(/N=C/c2ccc(-c3ccc([N+](=O)[O-])cc3)o2)C(O)=N1 [compound 3, dantrolene]
